Consider nine compounds from paper PMC10584170, “Machine learning-based phenotypic imaging to characterise the targetable biology of Plasmodium falciparum male gametocytes for the development of transmission-blocking antimalarials” (PLOS Pathogens, 2023).

Molecules are shown by their SMILES. Like-named read-outs stand apart in the source and are kept apart here.

Data set [1] deals with P. falciparum gametocytes. Kind of data set: P. falciparum Gametocyte Viability ATP Assay (PfGCT). The conditions noted are these: Mean TOX HepG2 over GC-ATP IC50; GREEN = >10-fold; RED = <10-fold. The class given is cell-based, Plasmodium falciparum. An excerpt:
(§1) Fig 1 The activity of TCAMS compound identified in the Pf DGFA screen. (A) 85 molecules were confirmed active in the Pf DGFA. 58 were previously identified in one or more transmission-blocking screens. […] No molecule was identified with >4.7-fold greater activity against female gametocytes. Abbreviations (IC50 = concentration giving 50% inhibition, PbODA = P. berghei Ookinete Development Assay, PfDGFA = P. falciparum Dual Gamete Formation Assay, PfFGAA = P. falciparum Female Gametocyte Activation Assay, PfGCT = P. falciparum Gametocyte Viability ATP Assay).

Data set [2] relates to P. falciparum female gametocytes. More on the design: method as in Miguel-Blanco et al 2017. The conditions noted are these: ref Miguel-Blanco et al 2017; read-out: Pf female gametogenesis FGAA IC50; cited from earlier work.
Data set [3] shares this test system. Kind of data set: P. falciparum Dual Gamete Formation Assay (PfDGFA), female readout (Pfs25-positive female gametes). It counts as cell-based, Plasmodium falciparum NF54. Particulars: for IC50: this study, read-out: Pf DGFA IC50 FEM. In short, it runs like this: (§2)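 Day-14 NF54 gametocytes were incubated with compound for 24 h at 37°C under 1% O2/3% CO2/96% N2. Gametogenesis was triggered with ookinete medium (0.1 μM xanthurenic acid) plus Cy3-anti-Pfs25, and exflagellation was imaged by brightfield after cooling to 4°C then 28°C. Females were imaged by Pfs25 fluorescence 24 h later at 28°C.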

The subject of data set [4] is P. falciparum male gametocytes. Nature of the data set: P. falciparum Dual Gamete Formation Assay (PfDGFA), male readout (exflagellation). Particulars: for IC50: this study, read-out: Pf DGFA IC50 MALE. The class given is cell-based, Plasmodium falciparum NF54. Summed up: as §2
For data set [5], the system named is HepG2 cells. Kind of data set: HepG2 cytotoxicity counter-screen. Particulars: for Mean TOX: mean of the HepG2 TOX50 values.
Data set [6] concerns HepG2 cells. The conditions noted are these: cited from earlier work.
Data set [7] relates to P. falciparum female gametocytes. Nature of the data set: P. falciparum Female Gametocyte Activation Assay (PfFGAA). It counts as cell-based, Plasmodium falciparum. The conditions noted are these: Mean TOX HepG2 over FGAA IC50; GREEN = >10-fold; RED = <10-fold.
Excerpt: as §1

Data set [8] deals with P. falciparum gametocytes. Also noted: method as in Almela et al 2015. The conditions noted are these: ref Almela et al 2015; read-out: Pf Gametocyte viability (ATP) GC-ATP IC50; cited from earlier work.

Turning to `Br.c1cc(Nc2nc(-c3ccc(-c4csc(Nc5ccncc5)n4)cc3)cs2)ccn1` [TC35], in data set [1], the “Cytotox ratio Pf GC-ATP” value was found to be 30.9. Besides, the IC50 in data set [2] was 30 nM. For the same compound, in data set [3], the “Cytotox ratio Pf Female” value amounted to 26.8 and the IC50 was 300 nM. Moreover, in data set [4], the “Cytotox ratio Pf Male” value is on record as 26.8 and the IC50 stood at 300 nM. The “Mean TOX” value in the data set on HepG2 cells [5] is on record as 8.03 µM. Further, in the data set on HepG2 cells [6], the “FGAA TOX50 HepG2” value was 2.26 µM and the “GC-ATP TOX50 HepG2” value is listed as 17.3 µM. In addition, the “Cytotox ratio Pf FGAA” value in data set [7] is 267.7. For the same compound, the IC50 in data set [8] is 260 nM.
As to `C=CCN(C(=O)c1ccc(Cl)c([N+](=O)[O-])c1)c1nc(-c2ccccc2)cs1` [TC38], the “Cytotox ratio Pf GC-ATP” value in data set [1] amounted to 462.3. The half-maximal inhibitory concentration (IC50) in data set [2] is 130 nM. In data set [3], the “Cytotox ratio Pf Female” value came out at 164.1 and the IC50 came out at 310 nM. For the same compound, in data set [4], the “Cytotox ratio Pf Male” value is given as 127.1 and the IC50 is 400 nM. For the same compound, the “Mean TOX” value with HepG2 cells [5] amounted to 50.86 µM. Moreover, in the data set with HepG2 cells [6], the “FGAA TOX50 HepG2” value is 100 µM and the “GC-ATP TOX50 HepG2” value is listed as 25 µM. Also, the “Cytotox ratio Pf FGAA” value in data set [7] is given as 391.2. In data set [8], the IC50 was 110 nM.
Regarding `c1ccc2sc(Sc3ncnc4sccc34)nc2c1` [TC45], the “Cytotox ratio Pf GC-ATP” value in data set [1] was determined as 150.0. Also, the IC50 in data set [2] was 140 nM; in data set [3], 290 nM; in data set [4], 300 nM; in data set [8] it was 500 nM. For the same compound, the “Cytotox ratio Pf Female” value in data set [3] was found to be 258.6. Besides, the “Cytotox ratio Pf Male” value in data set [4] came out at 250.0. In addition, the “DGFA Tox50 HepG2” value in the data set on HepG2 cells [5] (HepG2 value reported with the DGFA screen) came to 100 µM. The “Mean TOX” value in the data set on HepG2 cells [5] was determined as 75.00 µM. In addition, the “FGAA TOX50 HepG2” value with HepG2 cells [6] is listed as 100 µM. In the data set with HepG2 cells [6], the “GC-ATP TOX50 HepG2” value is listed as 25 µM. For the same compound, the “Cytotox ratio Pf FGAA” value in data set [7] stood at 535.7.
Turning to `Cc1sc2ncnc(Sc3nnc(N)s3)c2c1C` [TC60], in data set [1], the “Cytotox ratio Pf GC-ATP” value was 141.5. Also, the IC50 in data set [2] is 770 nM. In data set [3], the “Cytotox ratio Pf Female” value stood at 57.4 and the IC50 was found to be 740 nM. Further, in data set [4], the “Cytotox ratio Pf Male” value is given as 30.1 and the IC50 was found to be 1410 nM. The “Mean TOX” value in the data set on HepG2 cells [5] is on record as 42.45 µM. Besides, in the data set on HepG2 cells [6], the “FGAA TOX50 HepG2” value is listed as 36.31 µM and the “GC-ATP TOX50 HepG2” value is 25 µM. Also, in data set [7], the “Cytotox ratio Pf FGAA” value was 55.1. Moreover, in data set [8], the IC50 was 300 nM.
In the case of `[O-][s+]1c(Cl)c(-c2ccc(Cl)cc2)c2ccc(Cl)cc21` (stereo not drawn) [TC66], in data set [1], the “Cytotox ratio Pf GC-ATP” value is recorded as 695.8. In addition, the IC50 in data set [2] is 40 nM. In addition, in data set [3], the “Cytotox ratio Pf Female” value is 99.4 and the IC50 is 140 nM. Moreover, in data set [4], the “Cytotox ratio Pf Male” value worked out at 99.4 and the IC50 came out at 140 nM. Also, the “Mean TOX” value in the data set on HepG2 cells [5] is recorded as 13.92 µM. Further, in the data set with HepG2 cells [6], the “FGAA TOX50 HepG2” value was 11.35 µM and the “GC-ATP TOX50 HepG2” value was 12.8 µM. Also, the “Cytotox ratio Pf FGAA” value in data set [7] is reported as 347.9. Moreover, the IC50 in data set [8] is 20 nM.
Take `Cc1cccc2nc(-c3ccc(-c4cccc(CNCCN5CCNCC5)c4)cc3)[nH]c12.O=C(O)C(F)(F)F` [TC67]: in data set [1], the “Cytotox ratio Pf GC-ATP” value stood at 22.4. The “Cytotox ratio Pf Female” value in data set [3] was found to be 2.1. Also, the figures for the IC50 in data set [3], in data set [4] and in data set [8] were 9110 nM, 1870 nM and 840 nM, respectively. The “Cytotox ratio Pf Male” value in data set [4] was found to be 10.1. For the same compound, in the data set with HepG2 cells [5], the “Mean TOX” value is 18.84 µM. For the same compound, the “GC-ATP TOX50 HepG2” value in the data set with HepG2 cells [6] was 13.4 µM.
For the compound `CN(C)CCCn1c(N)c(-c2nc3ccccc3[nH]2)c2nc(C#N)c(C#N)nc21` [TC72], the “Cytotox ratio Pf GC-ATP” value in data set [1] is given as 37.7. Moreover, in data set [3], the “Cytotox ratio Pf Female” value stood at 5.1 and the IC50 worked out at 1470 nM. In addition, in data set [4], the “Cytotox ratio Pf Male” value is 14.8 and the IC50 turned out to be 510 nM. In the data set on HepG2 cells [5], the “Mean TOX” value amounted to 7.53 µM. For the same compound, the “GC-ATP TOX50 HepG2” value in the data set with HepG2 cells [6] is reported as 6.93 µM. Further, the IC50 in data set [8] is 200 nM.
`Cc1cc(Nc2ccncc2)n2nc(C)c(-c3ccc(Cl)cc3)c2n1` [TC79]: in data set [1], the “Cytotox ratio Pf GC-ATP” value came to 63.5. Moreover, the “Cytotox ratio Pf Female” value in data set [3] is 5.8. Moreover, in data set [4], the “Cytotox ratio Pf Male” value worked out at 60.8 and the IC50 came out at 950 nM. In the data set with HepG2 cells [5], the “Mean TOX” value is on record as 57.77 µM. The “GC-ATP TOX50 HepG2” value in the data set on HepG2 cells [6] is recorded as 50 µM. For the same compound, in data set [8], the IC50 is 910 nM.
Regarding `Nc1cc(C=Cc2ccc([N+](=O)[O-])s2)nc2ccccc12` [TC80], the “Cytotox ratio Pf GC-ATP” value in data set [1] worked out at 7.8. Moreover, the “Cytotox ratio Pf Female” value in data set [3] turned out to be 4.5. Besides, the IC50 in data set [3] was 1030 nM; in data set [4], 330 nM; in data set [8], 600 nM. Besides, the “Cytotox ratio Pf Male” value in data set [4] was 14.2. The “Mean TOX” value in the data set on HepG2 cells [5] amounted to 4.68 µM. In addition, the “GC-ATP TOX50 HepG2” value in the data set with HepG2 cells [6] is 7.6 µM.
